Assay results published in patent US20160200733A1, “SUBSTITUTED THIENO[2,3-B]PYRIDINE-2-CARBOXAMIDE ANALOGS AS POSITIVE ALLOSTERIC MODULATORS OF THE MUSCARINIC ACETYLCHOLINE RECEPTOR M4” (Vanderbilt University, priority 2013, published 2016).

Target: T1, mAChR hM4 (Homo sapiens, UniProt P08173)
T1 construct: expressed in transfected cells; host or cells: CHO-K1 (Chinese hamster ovary) cells
T1 sequence (P08173 1-479): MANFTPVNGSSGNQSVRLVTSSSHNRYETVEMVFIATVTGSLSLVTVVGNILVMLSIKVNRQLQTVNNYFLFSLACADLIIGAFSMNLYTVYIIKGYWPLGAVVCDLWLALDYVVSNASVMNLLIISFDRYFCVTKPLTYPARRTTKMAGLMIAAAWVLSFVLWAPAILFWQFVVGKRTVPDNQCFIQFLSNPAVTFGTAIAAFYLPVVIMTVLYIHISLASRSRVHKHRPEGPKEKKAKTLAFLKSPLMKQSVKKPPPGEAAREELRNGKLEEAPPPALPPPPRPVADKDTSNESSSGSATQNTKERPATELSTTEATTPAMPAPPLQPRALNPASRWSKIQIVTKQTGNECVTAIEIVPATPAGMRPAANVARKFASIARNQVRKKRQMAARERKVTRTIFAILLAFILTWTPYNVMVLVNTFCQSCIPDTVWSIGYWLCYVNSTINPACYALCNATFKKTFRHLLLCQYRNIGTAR
Experiment: mAChR M4 cell-based functional assay (calcium flux, potentiation of EC20 acetylcholine response)
Conditions: mAChR hM4 cell-line; for Emax at 30 µM: % ACh maximum at 30 μM; for EC50: >10,000 estimated for low potency compounds lacking a plateau
Source text: In one aspect, the disclosed compounds potentiate the agonist response (e.g., acetylcholine) of mAChR M4. In a further aspect, the disclosed compounds increase mAChR M4 response to non-maximal concentrations of agonist in the presence of compound compared to the response to agonist in the absence of compound. […] For example, activation of mAChR M4 activity can be determined by measurement of calcium flux in response to agonist, e.g. acetylcholine, in cells loaded with a Ca^2+-sensitive fluorescent dye (e.g., Fluo-4). In a further aspect, the calcium flux was measured as an increase in fluorescent static ratio. In a yet further aspect, positive allosteric modulator activity was analyzed as a concentration-dependent increase in the EC20 acetylcholine response (i.e. the response of mAChR M4 at a concentration of acetylcholine that yields 20% of the maximal response).
In one aspect, the disclosed compounds activate mAChR M4 response as an increase in calcium fluorescence in mAChR M4-transfected CHO-K1 cells in the presence of the compound, compared to the response of equivalent CHO-K1 cells in the absence of the compound. […] In a further aspect, the mAChR M4-transfected CHO-K1 cells are transfected with human mAChR M4. In a still further aspect, the mAChR M4-transfected CHO-K1 cells are transfected with rat mAChR M4.
Substituted 3-aminothieno[2,3-c]pyridine-2-carboxamide analogs were synthesized as described above. Activity (EC50 and Emax) was determined in the mAChR M4 cell-based functional assay as described above, and the data are shown in Table II for assays conducted using mAChR hM4 cell-line. The compound number corresponds to the compound numbers used in Table I.

SMILES	Emax at 30 µM	EC50
Cc1cc(C)c2c(Br)c(C(=O)NC3CC3)sc2n1 [Compound 4, 3-bromo-N-cyclopropyl-4,6-dimethylthieno[2,3-b]pyridine-2-carboxamide]	49%	4.8 µM
Cc1cc(C)c2c(Br)c(C(=O)N3Cc4ccccc4C3)sc2n1 [Compound 5, (3-bromo-4,6-dimethylthieno[2,3-b]pyridin-2-yl)(isoindolin-2-yl)methanone]		> 10 µM
Cc1cc(C)c2c(Br)c(C(=O)NC3CCC3)sc2n1 [Compound 6, 3-bromo-N-cyclobutyl-4,6-dimethylthieno[2,3-b]pyridine-2-carboxamide]	41%	> 10 µM
Cc1cc(C)c2c(Br)c(C(=O)NC3CCOC3)sc2n1 (stereo not drawn) [Compound 7, 3-bromo-4,6-dimethyl-N-(tetrahydrofuran-3-yl)thieno[2,3-b]pyridine-2-carboxamide]		> 10 µM
Cc1cc(C)c2c(Br)c(C(=O)NC3(C)COC3)sc2n1 [Compound 8, 3-bromo-4,6-dimethyl-N-(3-methyloxetan-3-yl)thieno[2,3-b]pyridine-2-carboxamide]	59%	3.7 µM
Cc1cc(C)c2c(Br)c(C(=O)NCc3cccnc3)sc2n1 [Compound 9, 3-bromo-4,6-dimethyl-N-(pyridin-3-ylmethyl)thieno[2,3-b]pyridine-2-carboxamide]	33%	3 µM
COc1ccc(CNC(=O)c2sc3nc(C)cc(C)c3c2Br)cc1 [Compound 10, 3-bromo-N-(4-methoxybenzyl)-4,6-dimethylthieno[2,3-b]pyridine-2-carboxamide]		> 10 µM
Cc1cc(C)c2c(Br)c(C(=O)NCC(C)C)sc2n1 [Compound 11, 3-bromo-N-isobutyl-4,6-dimethylthieno[2,3-b]pyridine-2-carboxamide]		> 10 µM
Cc1cc(C)c2c(Br)c(C(=O)NC3CCOCC3)sc2n1 [Compound 12, 3-bromo-4,6-dimethyl-N-(tetrahydro-2H-pyran-4-yl)thieno[2,3-b]pyridine-2-carboxamide]		> 10 µM
Cc1cc(C)c2c(Br)c(C(=O)NCC3CC3)sc2n1 [Compound 13, 3-bromo-N-(cyclopropylmethyl)-4,6-dimethylthieno[2,3-b]pyridine-2-carboxamide]	29%	> 10 µM
Cc1cc(C)c2c(Br)c(C(=O)N3CCOCC3)sc2n1 [Compound 14, (3-bromo-4,6-dimethylthieno[2,3-b]pyridin-2-yl)(morpholino)methanone]		> 10 µM
COc1ccc(CNC(=O)c2cc3c(C)cc(C)nc3s2)cc1 [Compound 15, N-(4-methoxybenzyl)-4,6-dimethylthieno[2,3-b]pyridine-2-carboxamide]	55%	4 µM
COc1ccc(CNC(=O)c2sc3nc(C)cc(C)c3c2I)cc1 [Compound 16, 3-iodo-N-(4-methoxybenzyl)-4,6-dimethylthieno[2,3-b]pyridine-2-carboxamide]	51%	2.6 µM
COc1ccc(CNC(=O)c2sc3nc(C)cc(C)c3c2C)cc1 [Compound 17, N-(4-methoxybenzyl)-3,4,6-trimethylthieno[2,3-b]pyridine-2-carboxamide]	53%	2.4 µM
Cc1cc(C)c2c(C)c(C(=O)NC3CC3)sc2n1 [Compound 18, N-cyclopropyl-3,4,6-trimethylthieno[2,3-b]pyridine-2-carboxamide]	73%	> 10 µM
Cc1cc(C)c2c(C)c(C(=O)NCc3ccc(S(C)(=O)=O)cc3)sc2n1 [Compound 19, 3,4,6-trimethyl-N-(4-(methylsulfonyl)benzyl)thieno[2,3-b]pyridine-2-carboxamide]	62%	4.2 µM
Cc1cc(C)c2c(C)c(C(=O)NCc3ccc4c(c3)CCO4)sc2n1 [Compound 20, N-((2,3-dihydrobenzofuran-5-yl)methyl)-3,4,6-trimethylthieno[2,3-b]pyridine-2-carboxamide]	38%	2.6 µM

SMILES	Emax at 30 µM	EC50
Cc1cc(C)c2c(C)c(C(=O)NCc3ccc(OC(F)(F)F)cc3)sc2n1 [Compound 21, 3,4,6-trimethyl-N-(4-(trifluoro-methoxy)benzyl)thieno[2,3-b]pyridine-2-carboxamide]		> 10 µM
Cc1cc(C)c2c(C)c(C(=O)NC3CCOC3)sc2n1 (stereo not drawn) [Compound 22, 3,4,6-trimethyl-N-(tetrahydrofuran-3-yl)thieno[2,3-b]pyridine-2-carboxamide]	67%	> 10 µM
Cc1cc(C)c2c(C)c(C(=O)N3CCCC(F)(F)C3)sc2n1 [Compound 23, (3,3-difluoropiperidin-1-yl)(3,4,6-trimethylthieno[2,3-b]pyridin-2-yl)methanone]		> 10 µM
Cc1cc(C)c2c(C)c(C(=O)N3CCCC3)sc2n1 [Compound 24, pyrrolidin-1-yl(3,4,6-trimethylthieno[2,3-b]pyridin-2-yl)methanone]		> 10 µM
Cc1cc(C)c2c(C)c(C(=O)N[C@@H]3CCOC3)sc2n1 [Compound 25, (R)-3,4,6-trimethyl-N-(tetrahydrofuran-3-yl)thieno[2,3-b]pyridine-2-carboxamide]	60%	> 10 µM
Cc1cc(C)c2c(C)c(C(=O)NC3CCOCC3)sc2n1 [Compound 26, 3,4,6-trimethyl-N-(tetrahydro-2H-pyran-4-yl)thieno[2,3-b]pyridine-2-carboxamide]	44%	> 10 µM
CSc1ccc(CNC(=O)c2sc3nc(C)cc(C)c3c2C)cc1 [Compound 27, 3,4,6-trimethyl-N-(4-(methylthio)benzyl)thieno[2,3-b]pyridine-2-carboxamide]	49%	2.2 µM
COc1ccc2c(c1)CCN(C(=O)c1sc3nc(C)cc(C)c3c1C)C2 [Compound 28, (6-methoxy-3,4-dihydroisoquinolin-2(1H)-yl)(3,4,6-trimethylthieno[2,3-b]pyridin-2-yl)methanone]		> 10 µM
COc1ccc(C(C)NC(=O)c2sc3nc(C)cc(C)c3c2C)cc1 (stereo not drawn) [Compound 29, N-(1-(4-methoxyphenyl)ethyl)-3,4,6-trimethylthieno[2,3-b]pyridine-2-carboxamide]		> 10 µM
Cc1cc(C)c2c(C)c(C(=O)NCCN3CCOCC3)sc2n1 [Compound 30, 3,4,6-trimethyl-N-(2-morpholinoethyl)thieno[2,3-b]pyridine-2-carboxamide]		> 10 µM
Cc1cc(C)c2c(C)c(C(=O)NCc3ccc4c(c3)OCCO4)sc2n1 [Compound 31, N-((2,3-dihydrobenzo[b][1,4]dioxin-6-yl)methyl)-3,4,6-trimethylthieno[2,3-b]pyridine-2-carboxamide]	57%	2.2 µM
Cc1cc(C)c2c(Br)c(C(=O)NCc3ccc(S(C)(=O)=O)cc3)sc2n1 [Compound 32, 3-bromo-4,6-dimethyl-N-(4-(methylsulfonyl)benzyl)thieno[2,3-b]pyridine-2-carboxamide]		> 10 µM
Cc1cc(C)c2c(C#N)c(C(=O)NCc3ccc(S(C)(=O)=O)cc3)sc2n1 [Compound 33, 3-cyano-4,6-dimethyl-N-(4-(methylsulfonyl)benzyl)thieno[2,3-b]pyridine-2-carboxamide]		> 10 µM
Cc1cc(C)c2c(-c3ccccc3)c(C(=O)NCc3ccc(S(C)(=O)=O)cc3)sc2n1 [Compound 34, 4,6-dimethyl-N-(4-(methylsulfonyl)benzyl)-3-phenylthieno[2,3-b]pyridine-2-carboxamide]		> 10 µM
Cc1cc(C)c2cc(C(=O)NCc3ccc(S(C)(=O)=O)cc3)sc2n1 [Compound 35, 4,6-dimethyl-N-(4-(methylsulfonyl)benzyl)thieno[2,3-b]pyridine-2-carboxamide]	41%	> 10 µM
Cc1cc(C)c2c(-c3cnn(C)c3)c(C(=O)NCc3ccc(S(C)(=O)=O)cc3)sc2n1 [Compound 36, 4,6-dimethyl-3-(1-methyl-1H-pyrazol-4-yl)-N-(4-(methylsulfonyl)benzyl)thieno[2,3-b]pyridine-2-carboxamide]		> 10 µM
Cc1cc(C)c2c(Br)c(C(=O)N(C)Cc3ccc(S(C)(=O)=O)cc3)sc2n1 [Compound 37, 3-bromo-N,4,6-trimethyl-N-(4-(methylsulfonyl)benzyl)thieno[2,3-b]pyridine-2-carboxamide]		> 10 µM
